Assay results reported in ChEMBL document CHEMBL5550127, “1,2,3-Triazole-totarol conjugates as potent PIP5K1α lipid kinase inhibitors” (Bioorg Med Chem, 2024).
One block for each compound: values may come before it. Active and inactive are the calls of the source. No cut-off for these calls is given here.

What was measured:
LNCaP [1] = test: Antiproliferative activity against human LNCaP cells assessed as inhibition of cell growth by measuring reduction in cell confluence at 5 to 20 uM measured every 2 hrs for 48 hrs by IncuCyte live-cell imaging analysis; assay type: functional, cell-based; settings: dose 5-20 µM
DU-145 [2] = test: Antiproliferative activity against human DU-145 cells assessed as inhibition of cell growth by measuring negative AUC values at 20 uM measured after 48 hrs by IncuCyte live-cell imaging analysis; assay type: functional, cell-based
LNCaP [3] = test: Antiproliferative activity against human LNCaP cells assessed as inhibition of cell growth by measuring negative AUC values at 20 uM measured after 48 hrs by IncuCyte live-cell imaging analysis; assay type: functional, cell-based
LNCaP [4] = test: Induction of morphological changes in human LNCaP cells assessed as change in cell shape at 10 uM measured after 0 to 72 hrs by IncuCyte live-cell imaging based phase contrast microscopic analysis; assay type: functional; settings: time 0-72 hrs
DU-145 [5] = test: Antiproliferative activity against human DU-145 cells assessed as inhibition of cell growth by measuring reduction in cell confluence at 1 to 5 uM measured every 2 hrs for 72 hrs by IncuCyte live-cell imaging analysis; assay type: functional, cell-based; settings: dose 1-5 µM
PC-3 [6] = test: Antiproliferative activity against human PC-3 cells assessed as inhibition of cell growth by measuring reduction in cell confluence at 10 to 20 uM measured every 2 hrs for 72 hrs by IncuCyte live-cell imaging analysis; assay type: functional, cell-based; settings: dose 10-20 µM
PC-3 [7] = test: Induction of morphological changes in human PC-3 cells assessed as change in cell shape at 10 uM measured after 0 to 72 hrs by IncuCyte live-cell imaging based phase contrast microscopic analysis; assay type: functional; settings: time 0-72 hrs
LNCaP [8] = test: cells; settings: Homo sapiens, 72 h
Description: Antiproliferative activity against human LNCaP cells assessed as inhibition of cell growth measured after 72 hrs by IncuCyte live-cell imaging analysis

PC-3 [9] = test: Antiproliferative activity against human PC-3 cells assessed as inhibition of cell growth by measuring negative AUC values at 20 uM measured after 48 hrs by IncuCyte live-cell imaging analysis; assay type: functional, cell-based
DU-145 [10] = test: cells; settings: Homo sapiens, DU-145, 72 h
Description: Antiproliferative activity against human DU-145 cells assessed as inhibition of cell growth measured after 72 hrs by IncuCyte live-cell imaging analysis

LNCaP [11] = test: Induction of morphological changes in human LNCaP cells assessed as change in number of cells at 10 uM measured after 0 to 72 hrs by IncuCyte live-cell imaging based phase contrast microscopic analysis; assay type: functional; settings: time 0-72 hrs
LNCaP [12] = test: Antiproliferative activity against human LNCaP cells assessed as inhibition of cell growth by measuring reduction in cell confluence at 10 to 20 uM measured every 2 hrs for 72 hrs by IncuCyte live-cell imaging analysis; assay type: functional, cell-based; settings: dose 10-20 µM
DU-145 [13] = test: Antiproliferative activity against human DU-145 cells assessed as inhibition of cell growth by measuring reduction in cell confluence at 10 to 20 uM measured every 2 hrs for 72 hrs by IncuCyte live-cell imaging analysis; assay type: functional, cell-based; settings: dose 10-20 µM
DU-145 [14] = test: Induction of morphological changes in human DU-145 cells assessed as change in cell shape at 10 uM measured after 0 to 72 hrs by IncuCyte live-cell imaging based phase contrast microscopic analysis; assay type: functional; settings: time 0-72 hrs
PC-3 [15] = test: cells; settings: Homo sapiens, PC-3, 72 h
Description: Antiproliferative activity against human PC-3 cells assessed as inhibition of cell growth measured after 72 hrs by IncuCyte live-cell imaging analysis

PC-3 [16] = test: Induction of morphological changes in human PC-3 cells assessed as change in number of cells at 10 uM measured after 0 to 72 hrs by IncuCyte live-cell imaging based phase contrast microscopic analysis; assay type: functional; settings: time 0-72 hrs
DU-145 [17] = test: Induction of morphological changes in human DU-145 cells assessed as change in number of cells at 10 uM measured after 0 to 72 hrs by IncuCyte live-cell imaging based phase contrast microscopic analysis; assay type: functional; settings: time 0-72 hrs
LNCaP [18] = test: Antiproliferative activity against human LNCaP cells assessed as inhibition of cell growth by measuring reduction in cell confluence at 1 to 5 uM measured every 2 hrs for 72 hrs by IncuCyte live-cell imaging analysis; assay type: functional, cell-based; settings: dose 1-5 µM
LNCaP [19] = test: Antiproliferative activity against human LNCaP cells assessed as inhibition of cell growth by measuring reduction in cell confluence at 20 uM measured every 2 hrs for 48 hrs by IncuCyte live-cell imaging analysis; assay type: functional, cell-based
[20] = biological target: Phosphatidylinositol 4-phosphate 5-kinase type-1 alpha (Homo sapiens) (UniProt Q99755); test: (§1) Inhibition of recombinant human PIP5K1alpha expressed in Escherichia coli BL21 (DE3) using phosphatidylinositol-4-phosphate as substrate at 10 uM preincubated for 10 mins followed by substrate and ATP addition and further incubated under dark condition with constant shaking for 30 mins by capillary electrophoresis; settings: time 40.0 min
Casein kinase 2 = Casein kinase 2 (Homo sapiens, UniProt P67870+P68400+P19784+Q8NEV1); test: Inhibition of CK2 (unknown origin) using RRRDDDSDDD-EDANS as substrate measured after 15 mins by capillary electrophoresis; assay type: protein assay
[21] = biological target: Phosphatidylinositol 4-phosphate 5-kinase type-1 alpha (Homo sapiens) (UniProt Q99755); test: as §1, with “substrate at 1 to 10 uM” for “substrate at 10 uM”; settings: dose 1-10 µM, time 40.0 min

Sequence of Phosphatidylinositol 4-phosphate 5-kinase type-1 alpha (Homo sapiens) (Q99755 whole entry): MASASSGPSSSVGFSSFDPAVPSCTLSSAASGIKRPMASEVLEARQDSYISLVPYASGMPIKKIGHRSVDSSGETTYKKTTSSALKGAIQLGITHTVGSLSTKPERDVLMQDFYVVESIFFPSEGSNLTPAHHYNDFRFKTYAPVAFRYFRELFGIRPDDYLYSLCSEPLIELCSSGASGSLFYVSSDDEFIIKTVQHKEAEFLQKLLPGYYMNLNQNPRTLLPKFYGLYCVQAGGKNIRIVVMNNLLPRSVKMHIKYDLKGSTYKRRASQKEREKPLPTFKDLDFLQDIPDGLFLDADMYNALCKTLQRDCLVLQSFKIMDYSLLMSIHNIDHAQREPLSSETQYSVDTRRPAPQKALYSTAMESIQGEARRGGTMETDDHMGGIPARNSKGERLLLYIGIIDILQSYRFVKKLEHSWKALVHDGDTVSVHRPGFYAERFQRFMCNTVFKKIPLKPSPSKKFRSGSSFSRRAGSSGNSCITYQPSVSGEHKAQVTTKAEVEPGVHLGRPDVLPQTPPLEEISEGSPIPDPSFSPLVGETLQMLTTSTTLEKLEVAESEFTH

SMILES: CN(C)CCN1C(=O)c2cccc3c(-n4cc(CO)nn4)ccc(c23)C1=O
Activity (LNCaP [1]): Active

EC50 (LNCaP [8]): 15.7 µM | EC50 (DU-145 [10]): 8.57 µM | EC50 (PC-3 [15]): 4.89 µM
SMILES: CC(C)c1c(OCc2cn(C3=CCC4C(=O)N(CCN(C)C)C(=O)c5cccc3c54)nn2)ccc2c1CC[C@H]1C(C)(C)CCC[C@]21C (stereo partly drawn)
Activity (DU-145 [2]): Active | Activity (LNCaP [3]): Active | Activity (LNCaP [4]): Active | Activity (DU-145 [5]): inactive | Activity (PC-3 [6]): Active | Activity (PC-3 [7]): Active | Activity (PC-3 [9]): Active | Activity (LNCaP [11]): Active | Activity (LNCaP [12]): Active | Activity (DU-145 [13]): Active | Activity (DU-145 [14]): Active | Activity (PC-3 [16]): Active | Activity (DU-145 [17]): Active | Activity (LNCaP [18]): inactive

inhibition [20]: inactive
SMILES: CC(C)c1c(O)ccc2c1CC[C@H]1C(C)(C)CCC[C@]21C
Activity (LNCaP [19]): inactive

IC50 (Casein kinase 2): 0.91 µM
SMILES: CC(C)c1c(OCc2cn(-c3cccc([N+](=O)[O-])c3)nn2)ccc2c1CC[C@H]1C(C)(C)CCC[C@]21C

inhibition [21]: inactive
SMILES: CCCCCCCCCCCn1cc(COc2ccc3c(c2C(C)C)CC[C@H]2C(C)(C)CCC[C@]32C)nn1

IC50 (Casein kinase 2): 4.1 µM
SMILES: COc1ccc(-n2cc(COc3ccc4c(c3C(C)C)CC[C@H]3C(C)(C)CCC[C@]43C)nn2)cc1
